≈ marks a conversion by molar mass, not a printed value. Read-outs that look alike come from different tables or passages of the source.
Experiments:
[1] = tested on: Mycobacterium tuberculosis H37Rv strain (ATCC 27294); test: Antimycobacterial pre-screening at 6.25 μg/mL (BACTEC 460 radiometric system); assay type: cell-based; details: M. tuberculosis H37Rv; for inhibition at 6.25 µg/mL: 6.25 μg/mL; for MIC90: pre-screening, read-out: Estimation of MIC90
M. tuberculosis H37Rv = test: Microplate Alamar Blue Assay (MABA), MIC determination; assay type: cell-based, Mycobacterium tuberculosis; details: two-fold dilution from 100.00 to 0.19 μg/mL
male mice = test: Acute toxicity in vivo, median lethal dose; details: intraperitoneal, approximate LD50 (Litchfield and Wilcoxon)
Method: The synthesized compounds were evaluated for their approximate LD50 in male mice. The mice were kept under a constant temperature and humidity in sterile cages with water and food. The stock solutions of the compounds used in this study were prepared immediately before usage and injected intraperitoneally (ip). The LD50 values (Tab. 3) were calculated using the method described by Litchfield and Wilcoxon.
The median lethal dose (LD50), the dose of the selected compounds that causes 50% mortality in mice, was determined from dose–response curves with at least four doses by the method of Litchfield and Wilcoxon.

in vitro = details: African green monkey
[2] = Cytotoxicity in VERO cells (MTT); details: African green monkey
[3] = Mycobacterium tuberculosis, H37RV, read-out: MIC90

Compound	inhibition at 6.25 µg/mL [1] [%]	MIC90 [1] [µg/mL]	MIC90 (M. tuberculosis H37Rv; [3]) [µg/mL]	MIC90 (M. tuberculosis H37Rv) [µg/mL]	LD50ip (male mice) [mg/kg]	IC50 at 72 h (in vitro) [µg/mL]	IC50 at 72 h [2] [µg/mL]
O=C1C2=C(C(=O)c3ccccc31)C(c1ccccc1O)c1sc(=O)[nH]c1S2 (stereo not drawn) [Compound 4a, 11-(2-Hydroxyphenyl)-3, 11-dihydro-2H-benzo[6,7]thiochromeno[2,3-d][1,3]thiazole-2,5,10-trione]	≥ 90	< 6.25	0.6 to 2.7 (≈ 1.52 to 6.86 µM)	0.68 (≈ 1.73 µM)	800	0.44 (≈ 1.12 µM)	
CC(C)(C)c1ccc(C2C3=C(Sc4[nH]c(=O)sc42)C(=O)c2ccccc2C3=O)cc1 (stereo not drawn) [Compound 4b, 11-(4-tert-Butylphenyl)-3,11-dihydro-2H-benzo[6,7]thiochromeno[2,3-d][1,3]thiazole-2,5,10-trione]	61	> 6.25			650		
COC(=O)c1ccc(C2C3=C(Sc4[nH]c(=O)sc42)C(=O)c2ccccc2C3=O)cc1 (stereo not drawn) [Compound 4c, Methyl 4-(2,5,10-trioxo-3,5,10,11-tetrahydro-2H-benzo[6,7]thiochromeno[2,3-d][1,3]thiazol-11-yl)benzoate]	≥ 90	< 6.25			180		
COc1cc(C2C3=C(Sc4[nH]c(=O)sc42)C(=O)c2ccccc2C3=O)ccc1OC(F)F (stereo not drawn) [Compound 4d, 11-[4-(Difluoromethoxy)-3-methoxyphenyl]-3,11-dihydro-2H-benzo[6,7]thio-chromeno[2,3-d][1,3]thiazole-2,5,10-trione]	65	> 6.25			710		
O=C1C2=C(C(=O)c3ccccc31)C(c1ccc(Cl)cc1)c1sc(=O)[nH]c1S2 (stereo not drawn) [Compound 4g, 11-(4-Chlorophenyl)-3,11-dihydro-2H-benzo[6,7]thiochromeno[2,3-d][1,3]thiazole-2,5,10-trione]	≥ 90	< 6.25			>1000	1.58 (≈ 3.84 µM)	
O=C1C2=C(C(=O)c3ccccc31)C(c1ccc(F)cc1)c1sc(=O)[nH]c1S2 (stereo not drawn) [Compound 4h, 11-(4-Fluorophenyl)-3,11-dihydro-2H-benzo[6,7]thiochromeno[2,3-d][1,3]thiazole-2,5,10-trione]	≥ 90	< 6.25			750	1.47 (≈ 3.72 µM)	
NNC(=O)c1ccncc1 [Isoniazid, isoniazid, reference compound]			0.044 (≈ 0.321 µM)				> 6
CO[C@H]1/C=C/O[C@@]2(C)Oc3c(C)c(O)c4c(O)c(c(/C=N/N5CCN(C)CC5)c(O)c4c3C2=O)NC(=O)/C(C)=C\C=C\[C@H](C)[C@H](O)[C@@H](C)[C@@H](O)[C@@H](C)[C@H](OC(C)=O)[C@@H]1C [Rifampin, reference compound]			0.075 (≈ 0.0911 µM)				> 6
